US11465986B2, “Crystal form of c-MET inhibitor and salt form thereof and preparation method therefor” (FUJIAN AKEYLINK BIOTECHNOLOGY CO., LTD., priority 2018, dated 2022)

Test: Stability test of the crystal forms (HPLC impurity content)
Format: physicochemical
Conditions: for Stability, conclusion in words: stress conditions (high temperature, high humidity, light)
Experimental: The method for High Performance Liquid Chromatograph (HPLC) in the present disclosure
Instrument Model: Agilent 1200 High Performance Liquid Chromatograph
The analysis method is as follows: […]
About 10 mg of the crystal form B of the compound represented by formula (II) was weighted and placed under stability test conditions, and the samples were collected and analyzed after 5 days, 10 days, and 1 month.
About 10 mg of the crystal form C of the compound represented by formula (III) was weighted and placed under stability test conditions, and the samples were collected and analyzed after 5 days, 10 days, and 1 month respectively.

[1] = form B, 40° C. relative humidity 75%, 1 month
[2] = form B, 40° C. relative humidity 75%, 10 days
[3] = form B, 60° C. relative humidity 75%, 1 month
[4] = form B, 60° C. relative humidity 75%, 10 days
[5] = form B, Light (total illuminance = 1.2 × 106 Lux · hr/near ultraviolet = 200 w · hr/m^2)
[6] = form B, Relative humidity 92.5%, 1 month
[7] = form B, Relative humidity 92.5%, 5 days
[8] = form B, Relative humidity 92.5%, 10 days
[9] = form C, Light (total illuminance = 1.2 × 106 Lux · hr/near ultraviolet = 200 w · hr/m^2)

For C[C@H](c1cccc(-c2ncc(OCC3CCN(C)CC3)cn2)c1)n1cc(-c2cc(C#N)ccn2)cc(F)c1=O.Cl, the “Impurity content, relative retention time 0.77” value (form B, 0 day) was 0.05%, the “Impurity content, relative retention time 1.04” value (form B, 0 day) was 2.18% and the Total impurities (form B, 0 day) was 2.24%. For the same compound, the “Impurity content, relative retention time 0.77” value [1] was 0.23%, the “Impurity content, relative retention time 1.04” value [1] was 1.95% and the Total impurities [1] was 2.18%. The “Impurity content, relative retention time 0.77” value [2] was 0.18%, the “Impurity content, relative retention time 1.04” value [2] was 2.02% and the Total impurities [2] was 2.2%. The “Impurity content, relative retention time 0.77” value [3] was 0.36%, the “Impurity content, relative retention time 1.04” value [3] was 1.76% and the Total impurities [3] was 2.12%. The “Impurity content, relative retention time 0.77” value [4] was 0.42%, the “Impurity content, relative retention time 1.04” value [4] was 1.72% and the Total impurities [4] was 2.13%. For the same compound, the “Impurity content, relative retention time 0.77” value (form B, 60° C., 1 month) was 0.05%, the “Impurity content, relative retention time 1.04” value (form B, 60° C., 1 month) was 2.27% and the “Impurity content, relative retention time 1.4” value (form B, 60° C., 1 month) was 0.28%. For the same compound, the “Impurity content, relative retention time 1.41” value (form B, 60° C., 1 month) was 0.07%, the “Impurity content, relative retention time 1.43” value (form B, 60° C., 1 month) was 0.06% and the “Impurity content, relative retention time 1.49” value (form B, 60° C., 1 month) was 0.05%. The Total impurities (form B, 60° C., 1 month) was 2.78%, the “Impurity content, relative retention time 0.77” value (form B, 60° C., 5 days) was 0.06% and the “Impurity content, relative retention time 1.04” value (form B, 60° C., 5 days) was 2.18%. The “Impurity content, relative retention time 1.4” value (form B, 60° C., 5 days) was 0.06%, the Total impurities (form B, 60° C., 5 days) was 2.3% and the “Impurity content, relative retention time 1.04” value (form B, 60° C., 10 days) was 2.16%. The “Impurity content, relative retention time 1.4” value (form B, 60° C., 10 days) was 0.12%, the Total impurities (form B, 60° C., 10 days) was 2.29% and the “Impurity content, relative retention time not resolvable (one of 1.4 to 1.49)” value [5] was 0.17%. The Total impurities [5] was 2.39%, the “Impurity content, relative retention time 0.77” value [6] was 0.2% and the “Impurity content, relative retention time 1.04” value [6] was 2.03%. The Total impurities [6] was 2.23%, the “Impurity content, relative retention time 0.77” value [7] was 0.13% and the “Impurity content, relative retention time 1.04” value [7] was 2.08%. The Total impurities [7] was 2.21%, the “Impurity content, relative retention time 0.77” value [8] was 0.16% and the “Impurity content, relative retention time 1.04” value [8] was 2.04%. The Total impurities [8] was 2.2% and the “Stability, conclusion in words” value was “stable under high temperature and light conditions”.

Compound C[C@H](c1cccc(-c2ncc(OCC3CCN(C)CC3)cn2)c1)n1cc(-c2cc(C#N)ccn2)cc(F)c1=O [crystal form C of the compound represented by formula (III)] has a Total impurities (form C, 0 day) of 2.22%, a Total impurities (form C, 40° C. Relative humidity 75%, 1 month) of 2.31% and a Total impurities (form C, 40° C. Relative humidity 75%, 10 days) of 2.26%. It also gave a Total impurities (form C, 60° C. Relative humidity 75%, 1 month) of 12.75%, a Total impurities (form C, 60° C. Relative humidity 75%, 10 days) of 6.04% and a Total impurities (form C, 60° C., 1 month) of 2.35%. The Total impurities (form C, 60° C., 5 days) was 2.27%, the Total impurities (form C, 60° C., 10 days) was 2.35% and the “Impurity content, relative retention time 0.45 (column inferred)” value [9] was 0.05%. For the same compound, the “Impurity content, relative retention time 0.7 (column inferred)” value [9] was 0.12%, the “Impurity content, relative retention time 0.75 (column inferred)” value [9] was 0.05% and the “Impurity content, relative retention time 0.87 or 0.94 (column inferred)” value [9] was 0.24%. It also gave a Total impurities [9] of 2.94%, a Total impurities (form C, Relative humidity 92.5%, 1 month) of 2.28% and a Total impurities (form C, Relative humidity 92.5%, 5 days) of 2.29%. The Total impurities (form C, Relative humidity 92.5%, 10 days) was 2.22% and the “Stability, conclusion in words” value was “relatively stable under high temperature and high humidity conditions”.
